From patent US12059420B2 (BRISTOL-MYERS SQUIBB COMPANY, priority 2018, dated 2024)
pIC50: −log10 of the molar value. Where a name gives a salt, the structure may show the parent alone.

Molecular target: T1, human IDO1 (Homo sapiens, UniProt P14902)
T1 construct: expressed in transfected cells
Assay: IDO inhibition assay in HEK293 cells stably expressing human IDO1 (kynurenine production, Ehrlich reagent, absorbance 490 nm)
Type: cell-based
Conditions: 20 hours incubation with compound, 500 nM reference standard = 100% inhibition, read-out: IDO1 HEK Human IC50
Method: HEK293 cells were transfected with a pCDNA-based mammalian expression vector harboring human IDO1 cDNA (NM 002164.2) by electroporation. They were cultured in medium (DMEM with 10% FBS) containing 1 mg/ml G418 for two weeks. Clones of HEK293 cells that stably expressed human IDO1 protein were selected and expanded for IDO inhibition assay.
The human IDO1/HEK293 cells were seeded at 10,000 cells per 50 μL per well with RPMI/phenol red free media contains 10% FBS in a 384-well black wall clear bottom tissue culture plate (Matrix Technologies LLC) 100 nL of certain concentration of compound was then added to each well using ECHO liquid handling systems. The cells were incubated for 20 hours in 37° C. incubator with 5% CO2.
The compound treatments were stopped by adding trichloroacetic acid (Sigma-Aldrich) to a final concentration at 0.2%. The cell plate was further incubated at 50° C. for 30 minute. The equal volume supernatant (20 μL) and 0.2% (w/v) Ehrlich reagent (4-dimethylaminobenzaldehyde, Sigma-Aldrich) in glacial acetic acid were mixed in a new clear bottom 384-well plate. This plate was then incubated at RT for 30 minute. The absorbance at 490 nm was measured on Envision plate reader.
Compound IC50 values were calculated using the counts of 500 nM of a reference standard treatment as one hundred percent inhibition, and counts of no compound but DMSO treatment as zero percent inhibition.

T1 sequence (P14902 whole entry): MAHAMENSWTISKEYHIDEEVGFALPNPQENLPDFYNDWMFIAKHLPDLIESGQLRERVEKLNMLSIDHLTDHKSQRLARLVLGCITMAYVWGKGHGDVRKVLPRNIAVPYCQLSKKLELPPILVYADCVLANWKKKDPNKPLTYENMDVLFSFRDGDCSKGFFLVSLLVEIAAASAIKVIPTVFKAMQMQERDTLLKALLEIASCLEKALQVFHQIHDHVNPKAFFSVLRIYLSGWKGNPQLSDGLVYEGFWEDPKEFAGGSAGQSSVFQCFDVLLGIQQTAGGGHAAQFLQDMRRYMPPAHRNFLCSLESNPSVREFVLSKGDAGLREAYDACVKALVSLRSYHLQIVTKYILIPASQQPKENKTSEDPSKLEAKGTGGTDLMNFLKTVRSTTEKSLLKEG

pIC50	SMILES
6.39	Cc1ccc(NC(=O)Nc2cc(-c3ccccc3-c3nnn[nH]3)nc(N(Cc3ccccc3)CC(C)C)n2)cc1 [Example 10, 1-(6-(2-(1H-tetrazol-5-yl)phenyl)-2-(benzyl(isobutyl)amino)pyrimidin-4-yl)-3-(p-tolyl)urea]
6.10	CCCN(Cc1ccccc1)c1cc(NC(=O)Cc2cc(C)no2)cc(-c2ccccc2-c2nnn[nH]2)n1 [Example 296]
7.11	Cc1cncc(Nc2cc(-c3ccccc3-c3nnn[nH]3)nc(N(Cc3ccccc3)CC(C)C)c2)n1 [Example 136, 6-(2-(1H-tetrazol-5-yl)phenyl)-N2-benzyl-N2-isobutyl-N4-(6-methylpyrazin-2-yl)pyridine-2,4-diamine]
7.93	CCCN(Cc1ccccc1)c1cc(NC(=O)Nc2ccc(C)cc2)cc(-c2cc(C)ccc2-c2noc(=O)[nH]2)n1 [Example 26, 1-(2-(benzyl(propyl)amino)-6-(5-methyl-2-(5-oxo-4,5-dihydro-1,2,4-oxadiazol-3-yl)phenyl)pyridin-4-yl)-3-(p-tolyl)urea]
5.47	CCCN(Cc1ccccc1)c1cc(NC(=O)Cc2ccc(C#N)cc2)cc(-c2ccccc2-c2nn[nH]n2)n1 [Example 227, N-(2-(2-(2H-tetrazol-5-yl)phenyl)-6-(benzyl(propyl)amino)pyridin-4-yl)-2-(4-cyanophenyl)acetamide]
6.00	Cc1ccc(CC(=O)Nc2cc(-c3ccccc3-c3nnn[nH]3)nc(N3CCN(Cc4ccccc4)C(=O)C3)c2)cc1 [Example 76, N-(2-(2-(1H-tetrazol-5-yl)phenyl)-6-(4-benzyl-3-oxopiperazin-1-yl)pyridin-4-yl)-2-(p-tolyl)acetamide, TFA]
6.29	CCN(CCC(F)(F)F)c1cc(NC(=O)Cc2ccc(C)cc2)cc(-c2ccccc2-c2nnn[nH]2)n1 [Example 101, N-(2-(2-(1H-tetrazol-5-yl)phenyl)-6-(ethyl(3,3,3-trifluoropropyl)amino)pyridin-4-yl)-2-(p-tolyl)acetamide]
5.47	CCCN(Cc1ccccc1)c1cc(NC(=O)Cc2cccnc2)cc(-c2ccccc2-c2nn[nH]n2)n1 [Example 226, N-(2-(2-(2H-tetrazol-5-yl)phenyl)-6-(benzyl(propyl)amino)pyridin-4-yl)-2-(pyridin-3-yl)acetamide]
5.61	CCCN(Cc1ccccc1)c1cc(NC(=O)Nc2ccc(C)cc2)cc(-c2ccccc2C(=O)NS(=O)(=O)N2CCN(C)CC2)n1 [Example 18, 2-(6-(benzyl(propyl)amino)-4-(3-(p-tolyl)ureido)pyridin-2-yl)-N-((4-methylpiperazin-1-yl)sulfonyl)benzamide]
7.05	CCCN(Cc1ccc(F)cc1)c1cc(NC(=O)Cc2ccc(C)cc2)cc(-c2ccccc2-c2nnn[nH]2)n1 [Example 85, N-(2-(2-(1H-tetrazol-5-yl)phenyl)-6-((4-fluorobenzyl)(propyl)amino)pyridin-4-yl)-2-(p-tolyl)acetamide, TFA]
8.96	CC(C)CN(Cc1ccc(F)cc1)c1cc(Nc2ccc3c(c2)OCO3)cc(-c2ccccc2-c2nnn[nH]2)n1 [Example 46, 6-(2-(1H-tetrazol-5-yl)phenyl)-N4-(benzo[d][1,3]dioxol-5-yl)-N2-(4-fluorobenzyl)-N2-isobutylpyridine-2,4-diamine]
5.46	CCCN(Cc1ccccc1)c1cc(NC(=O)Cn2ccnc2)cc(-c2ccccc2-c2nn[nH]n2)n1 [Example 222, N-(2-(2-(2H-tetrazol-5-yl)phenyl)-6-(benzyl(propyl)amino)pyridin-4-yl)-2-(1H-imidazol-1-yl)acetamide]
7.63	CC(C)CN(Cc1ccccc1)c1cc(Nc2cccnc2F)cc(-c2ccccc2-c2nnn[nH]2)n1 [Example 160, 6-(2-(1H-tetrazol-5-yl)phenyl)-N2-benzyl-N4-(2-fluoropyridin-3-yl)-N2-isobutylpyridine-2,4-diamine]
7.95	CC(C)CN(Cc1ccccc1)c1cc(Nc2ccc(F)c(Cl)c2)cc(-c2ccccc2-c2nnn[nH]2)n1 [Example 169, 6-(2-(1H-tetrazol-5-yl)phenyl)-N2-benzyl-N4-(3-chloro-4-fluorophenyl)-N2-isobutylpyridine-2,4-diamine]
6.73	CC(C)CN(Cc1ccccc1)c1cc(NC(=O)Cc2ccc(F)cc2F)cc(-c2ccccc2-c2nnn[nH]2)n1 [Example 229, N-(2-(2-(1H-tetrazol-5-yl)phenyl)-6-(benzyl(isobutyl)amino)pyridin-4-yl)-2-(2,4-difluorophenyl)acetamide]
6.36	CCCN(CC1CC1)c1nc(NC(=O)Nc2ccc(C)cc2)cc(-c2ccccc2-c2nnn[nH]2)n1 [Example 66, 1-(6-(2-(1H-tetrazol-5-yl)phenyl)-2-((cyclopropylmethyl)(propyl)amino)pyrimidin-4-yl)-3-(p-tolyl)urea, TFA]

pIC50	SMILES
7.50	Cc1cnc(Nc2cc(-c3ccccc3-c3nnn[nH]3)nc(N(Cc3ccccc3)CC(C)C)c2)cn1 [Example 49, 6-(2-(1H-tetrazol-5-yl)phenyl)-N2-benzyl-N2-isobutyl-N4-(5-methylpyrazin-2-yl)pyridine-2,4-diamine, TFA]
7.58	Cc1ccc(CC(=O)Nc2cc(-c3ccccc3-c3nnn[nH]3)nc(N(CC(C)C)C3CCCCC3)n2)cc1 [Example 3, N-(6-(2-(1H-tetrazol-5-yl)phenyl)-2-(cyclohexyl(isobutyl)amino)pyrimidin-4-yl)-2-(p-tolyl)acetamide]
7.62	CC(C)CN(Cc1ccccc1)c1cc(Nc2ccc(C#N)cn2)cc(-c2ccccc2-c2nnn[nH]2)n1 [Example 150, 6-((2-(2-(1H-tetrazol-5-yl)phenyl)-6-(benzyl(isobutyl)amino)pyridin-4-yl)amino)nicotinonitrile]
8.14	Cc1ccc(Nc2cc(-c3ccccc3-c3nnn[nH]3)nc(N(Cc3ccccc3)CC(C)C)c2)c(F)c1 [Example 147, 6-(2-(1H-tetrazol-5-yl)phenyl)-N2-benzyl-N4-(2-fluoro-4-methylphenyl)-N2-isobutylpyridine-2,4-diamine]
7.95	CCC(CC(=O)O)c1cc(Nc2ccc3nc(C)sc3c2)cc(N(Cc2ccc(F)cc2)C(C)C)n1 (single isomer, unassigned) [Example 247, 3-(6-((4-fluorobenzyl)(isopropyl)amino)-4-((2-methylbenzo [d]thiazol-6-yl)amino)pyridin-2-yl)pentanoic acid]
6.82	Cc1ccc(CC(=O)Nc2cc(-c3cc(F)ccc3-c3nnn[nH]3)nc(N(Cc3ccccc3)CC(C)C)c2)cc1 [Example 89, N-(2-(benzyl(isobutyl)amino)-6-(5-fluoro-2-(1H-tetrazol-5-yl)phenyl)pyridin-4-yl)-2-(p-tolyl)acetamide, TFA]
5.80	CCN(Cc1ccccc1)c1cc(NC(=O)Cc2ccc(C#N)cc2)cc(-c2ccccc2-c2nnn[nH]2)n1 [Example 282, N-(2-(2-(1H-Tetrazol-5-yl)phenyl)-6-(benzyl(ethyl)amino)pyridin-4-yl)-2-(4-cyanophenyl)acetamide]
6.56	CC(C)CN(Cc1ccccc1)c1cc(Nc2ncc(C(N)=O)cc2F)cc(-c2ccccc2-c2nnn[nH]2)n1 [Example 159, 6-((2-(2-(1H-tetrazol-5-yl)phenyl)-6-(benzyl(isobutyl)amino)pyridin-4-yl)amino)-5-fluoronicotinamide]
6.01	CCC(CC(=O)O)c1cc(Nc2ccc3nc(C)sc3c2)cc(N(Cc2ccccc2)C(C)C)n1 (stereo not shown) [Example 242, 3-(6-(benzyl(isopropyl)amino)-4-((2-methylbenzo[d]thiazol-6-yl)amino)pyridin-2-yl)pentanoic acid]
7.39	CCCN(Cc1ccccc1)c1cc(NC(=O)Nc2ccc(C(F)(F)F)cc2)cc(-c2ccccc2-c2nnn[nH]2)n1 [Example 289, 1-(2-(2-(1H-Tetrazol-5-yl)phenyl)-6-(benzyl(propyl)amino)pyridin-4-yl)-3-(4-(trifluoromethyl)phenyl)urea]
6.90	CCN(CCC(F)(F)F)c1nc(NC(=O)Cc2ccc(C)cc2)cc(-c2ccccc2-c2nnn[nH]2)n1 [Example 100, N-(6-(2-(1H-tetrazol-5-yl)phenyl)-2-(ethyl(3,3,3-trifluoropropyl)amino)pyrimidin-4-yl)-2-(p-tolyl)acetamide]
6.88	CC(C)CN(Cc1ccccc1)c1cc(NC(=O)Nc2ccc(F)cc2F)cc(-c2ccccc2-c2nnn[nH]2)n1 [Example 237, 1-(2-(2-(1H-tetrazol-5-yl)phenyl)-6-(benzyl(isobutyl)amino)pyridin-4-yl)-3-(2,4-difluorophenyl)urea]
7.96	CC(C)CN(Cc1ccccc1)c1cc(Nc2ccccc2F)cc(-c2ccccc2-c2nnn[nH]2)n1 [Example 179, 6-(2-(1H-tetrazol-5-yl)phenyl)-N2-benzyl-N4-(2-fluorophenyl)-N2-isobutylpyridine-2,4-diamine]
6.13	CC(C)CN(Cc1ccccc1)c1cc(Nc2ncccc2C#N)cc(-c2ccccc2-c2nnn[nH]2)n1 [Example 163, 2-((2-(2-(1H-tetrazol-5-yl)phenyl)-6-(benzyl(isobutyl)amino)pyridin-4-yl)amino)nicotinonitrile]
6.04	CCCN(Cc1ccccc1)c1cc(NC(=O)Cc2csc(C)n2)cc(-c2ccccc2-c2nn[nH]n2)n1 [Example 211, N-(2-(2-(2H-tetrazol-5-yl)phenyl)-6-(benzyl(propyl)amino)pyridin-4-yl)-2-(2-methylthiazol-4-yl)acetamide]
